Data set [1] has as its system U-IEO-derived hair cell-like cells. Nature of the data set: Patch clamp of hair cell-like cells from U well plate inner ear organoids, with or without cisplatin. It is filed as cell-based, mouse. As for the experimental part: (§1) A 10 mV nominal increment was made at the holding potential of −84 mV covering the range of −124 to +54 mV for a duration of […], before returning to a constant potential of −44 mV (tail current, 50 ms). The bath solution was prepared using L-15 media (Gibco) and the pipette solution was prepared using 150 mM KCl, 5 mM HEPES, 0.1 mM CaCl2, 5 mM EGTA, 3.5 mM Mg ATP, pH 7.3 (KOH), and Osmolality 288 mmol/kg. To obtain damaged IEO, IEO was treated with […] of cisplatin on day 30 for 48 hours (100 mg cisplatin/0.33 mL (D. W) a 3 μL cisplatin +20 mL medium). To apply the IEO for patch clamp, the IEO was treated with trypsin for 5 minutes and the detached cells were detected with a patch pipette (n=4). Whole cells of IEO-derived hair cell-like cells were subjected to close-seal technique, in order to compare the electrophysiology of IEOS formed in microhole chips (hereinafter “M-IEO”) and IEOs formed in U well plates (hereinafter “U-IEO”) using patch clamp assays (FIG. 5A). In the 3D structure of the IEO, cells were isolated using single cell trypsinization. First, the morphology of mouse organs of Corti hair cells, mESC (R1/E), and IEO-derived hair cell-like cells was confirmed (FIG. 5B). […]

Data set [2] relates to M-IEO-derived hair cell-like cells. Nature of the data set: Patch clamp of hair cell-like cells from microhole chip inner ear organoids, with or without cisplatin. Format: cell-based, mouse. Conditions: 68 pA−20 pA at 60 mV (so in the source). Here is the method: as §1
A general note: Patch clamp records ionic current or voltage across a cell membrane.

Results on one molecule are retold here after patent publication US20250002846A1, “METHOD FOR CONSTRUCTION OF INNER EAR ORGANOID” (INDUSTRY FOUNDATION OF CHONNAM NATIONAL UNIVERSITY, priority 2022, published 2025).

As to `N.N.[Cl][Pt][Cl]` [cisplatin], the “electrophysiology after culture with cisplatin” value in data set [1] (3-day culture with or without cisplatin) is “significantly reduced electrophysiology”. For the same molecule, the “loss of current, without versus with cisplatin” value in data set [1] (U-IEO, 138 pA−28 pA (so in the source)) was found to be 110 pA; in data set [2], 48 pA.
